{"source": "patent US8338480B2", "about": "“Combination treatment of metabolic disorders” (Wellstat Therapeutics Corporation, priority 2006, dated 2012)", "assay_type_in_all_cases": "in vivo", "key": {"[1]": {"system": "Gold Thioglucose-obese mice", "experiment": "Serum glucose, triglycerides and free fatty acids in gold thioglucose-obese mice (Example 1)", "settings": "GTG-obese mice, after two weeks", "description": "Systemic administration of gold thioglucose (GTG) damages glucose-sensing neurons in the hypothalamus, and consequently impairs regulation of satiety, leading to chronic hyperphagia and consequent obesity.\n(§1) Mice received single daily oral treatment with Compound BI, rosiglitazone or combinations of the two drugs. A group of lean control mice on a standard low fat rodent chow was also included.\n(§2) • 1. Vehicle (1% hydroxypropylmethylcellulose) • 2. Compound BI 30 mg/kg • 3. Compound BI 100 mg/kg • 4. Rosiglitazone (RSG) 3 mg/kg • 5. RSG 3 mg/kg+Compound BI 30 mg/kg • 6. RSG 3 mg/kg+Compound BI 100 mg/kg • 7. Lean Control (no treatment)\nAfter two weeks, blood samples were collected from the retro-orbital sinus for measurement of serum glucose, triglycerides, and free fatty acids."}, "[2]": {"system": "Gold Thioglucose-obese (GTG) mice", "experiment": "Body weight and cumulative food intake in gold thioglucose-obese mice (Example 1)", "settings": "for Δ BW (g) 0-5 Weeks / Body Weight (g ± SEM) Week 1 / Body Weight (g ± SEM) Week 4 / Body Weight (g ± SEM) Week 5: GTG mice; for Cumulative Food Intake / Cumulative Food Intake (grams): per cage of 5 mice", "description": "Systemic administration of gold thioglucose (GTG) damages glucose-sensing neurons in the hypothalamus, and consequently impairs regulation of satiety, leading to chronic hyperphagia and consequent obesity. Male C57BL/6J mice, weighing 22 to 25 grams received gold thioglucose (Sigma Chemical Company, St. Louis Mo.) by intraperitoneal injection (500 mg/kg). Mice were given a high fat diet (45% Kcal fat; D12451, Research Diets, New Brunswick, N.J.) for 8 weeks to exacerbate obesity.\nas §1, with “Mice were then divided into groups comprising 5 mice each, sorted so that each group had similar mean body weights (approximately 47 grams). Mice” for “Mice”\nas §2"}, "[3]": {"system": "Uncoupling Protein 1 (UCP1)", "experiment": "UCP1 content of white adipose tissue by Western blot in db/db mice (Example 6)", "settings": "for WAT UCP1 (relative light units): db/db mice epididymal fat pads, two weeks daily oral", "description": "Uncoupling Protein 1 (UCP1) is a protein that can dissipate metabolic energy when expressed in the mitochondrial membrane. It is present in brown adipose tissue (BAT; the brown color is due to a higher density of mitochondria than in white adipose tissue) in small mammals where its main function is to generate heat, but it can also serve to accelerate combustion of fatty acids. This latter function is especially important when UCP1 is expressed in tissues other than brown fat, since depots of brown fat are limited in humans Expression of UCP1 in white fat alters the functional phenotype of the tissue from fat storage to fat combustion. Transgenic mice expressing UCP1 in white adipose tissue are resistant to obesity and diabetes induced by a high fat diet. Pharmacological induction of UCP1 expression in white adipose tissue is therefore an attractive strategy for promoting weight reduction and resistance to body weight gain. […]\nTreatment cohorts were given daily oral doses of vehicle, Compound BI (100 mg/kg/day), rosiglitazone (RSG; 3 mg/kg/day) or a combination of the two drugs for 2 weeks. […] Blood samples were also collected prior to sacrifice via the retro-orbital plexus, and processed and analyzed for serum glucose (AniLytics, Inc.; Gaithersburg Md.). […]\nThe membrane was washed 3 times in TBST at room temperature, and then incubated with a primary anti UCPI antibody (Chemicon Rabbit anti-mouse UCP-1, catalogue #AB3036) for 1 hr at RT (room temperature) in a sealed bag. […] The membrane was washed 6×7 min in TBST at room temperature, and then incubated with ECL (enhanced chemiluminescence) reagent (Amersham) for 1 min, and the relative amounts of UCP1 in tissue samples were quantified by densitometry of the images on X-ray film resulting from exposure to light from the chemiluminescence reaction, and expressed as relative light units (RLU)."}, "[4]": {"settings": "GTG-obese mice, 5 weeks, RSG 3 mg/kg"}, "[5]": {"settings": "Compound BI 30 mg/kg oral daily"}, "[6]": {"settings": "Compound BI 100 mg/kg oral daily"}, "[7]": {"settings": "GTG-obese mice, 5 weeks, Compound BI 30 mg/kg"}, "[8]": {"settings": "GTG-obese mice, 5 weeks, Compound BI 100 mg/kg"}}, "note": "Structures can show the parent of a compound that is named as a salt."}
{"compound": "CN(CCOc1ccc(CC2SC(=O)NC2=O)cc1)c1ccccn1", "note": "(stereo not drawn) [RSG, rosiglitazone maleate, reference compound]", "values": [{"measurement": "Free Fatty Acids ± SEM", "setting": "[1]; RSG 3 mg/kg oral daily", "result": "813.8 ± 34.2", "unit": "UMOL/L"}, {"measurement": "Glucose ± SEM", "setting": "[1]; RSG 3 mg/kg oral daily", "result": "215.8 ± 14.3", "unit": "mg/dL"}, {"measurement": "Triglycerides ± SEM", "setting": "[1]; RSG 3 mg/kg oral daily", "result": "61.4 ± 4.3", "unit": "mg/dL"}, {"measurement": "Δ BW (g) 0-5 Weeks", "setting": "[2]; RSG 3 mg/kg oral daily", "result": "-1.2 ± 0.2", "unit": "g"}, {"measurement": "Body Weight (g ± SEM) Week 1", "setting": "[2]; RSG 3 mg/kg oral daily", "result": "47.0 ± 1.0", "unit": "g"}, {"measurement": "Body Weight (g ± SEM) Week 4", "setting": "[2]; RSG 3 mg/kg oral daily", "result": "46.0 ± 1.1", "unit": "g"}, {"measurement": "Body Weight (g ± SEM) Week 5", "setting": "[2]; RSG 3 mg/kg oral daily", "result": "46.3 ± 1.0", "unit": "g"}, {"measurement": "Cumulative Food Intake", "setting": "[2]; [4]", "result": 1293, "unit": "kcal"}, {"measurement": "Cumulative Food Intake (grams)", "setting": "[2]; [4]", "result": 275, "unit": "grams"}, {"measurement": "WAT UCP1 (relative light units)", "setting": "[3]; RSG 3 mg/kg", "result": "2067 ± 717", "unit": "relative light units"}]}
{"compound": "Cc1cccc(C)c1COc1cccc(C(=O)CCC(=O)O)c1", "note": "[Compound BI, 4-(3-(2,6-Dimethylbenzyloxy)phenyl)-4-oxobutyric acid]", "values": [{"measurement": "blood glucose, triglycerides and free fatty acids (in words)", "setting": "[1]", "result": "dose-dependent decreases"}, {"measurement": "Free Fatty Acids ± SEM", "setting": "[1]; [5]", "result": "969.2 ± 18.2", "unit": "UMOL/L"}, {"measurement": "Glucose ± SEM", "setting": "[1]; [5]", "result": "205.8 ± 8.1", "unit": "mg/dL"}, {"measurement": "Triglycerides ± SEM", "setting": "[1]; [5]", "result": "62.8 ± 3.0", "unit": "mg/dL"}, {"measurement": "Free Fatty Acids ± SEM", "setting": "[1]; [6]", "result": "936.2 ± 63.0", "unit": "UMOL/L"}, {"measurement": "Glucose ± SEM", "setting": "[1]; [6]", "result": "160.0 ± 17.7", "unit": "mg/dL"}, {"measurement": "Triglycerides ± SEM", "setting": "[1]; [6]", "result": "53.8 ± 7.4", "unit": "mg/dL"}, {"measurement": "Δ BW (g) 0-5 Weeks", "setting": "[2]; [5]", "result": "-9.8 ± 0.2", "unit": "g"}, {"measurement": "Δ BW (g) 0-5 Weeks", "setting": "[2]; [6]", "result": "-14.6 ± 0.3", "unit": "g"}, {"measurement": "Body Weight (g ± SEM) Week 1", "setting": "[2]; [5]", "result": "39.8 ± 0.9", "unit": "g"}, {"measurement": "Body Weight (g ± SEM) Week 1", "setting": "[2]; [6]", "result": "38.4 ± 1.1", "unit": "g"}, {"measurement": "Body Weight (g ± SEM) Week 4", "setting": "[2]; [5]", "result": "40.0 ± 1.1", "unit": "g"}, {"measurement": "Body Weight (g ± SEM) Week 4", "setting": "[2]; [6]", "result": "34.0 ± 1.0", "unit": "g"}, {"measurement": "Body Weight (g ± SEM) Week 5", "setting": "[2]; [5]", "result": "37.4 ± 0.9", "unit": "g"}, {"measurement": "Body Weight (g ± SEM) Week 5", "setting": "[2]; [6]", "result": "33.0 ± 1.1", "unit": "g"}, {"measurement": "total food and calorie consumption (in words)", "setting": "[2]; GTG-obese mice, 5 weeks", "result": "reduced total food and calorie consumption"}, {"measurement": "Cumulative Food Intake", "setting": "[2]; [7]", "result": 1048, "unit": "kcal"}, {"measurement": "Cumulative Food Intake (grams)", "setting": "[2]; [7]", "result": 223, "unit": "grams"}, {"measurement": "Cumulative Food Intake", "setting": "[2]; [8]", "result": 902, "unit": "kcal"}, {"measurement": "Cumulative Food Intake (grams)", "setting": "[2]; [8]", "result": 192, "unit": "grams"}, {"measurement": "body weight (in words)", "setting": "[2]; GTG-obese mice, over the course of 5 weeks", "result": "decrease in body weight"}, {"measurement": "WAT UCP1 (relative light units)", "setting": "[3]; Cpd. BI 100 mg/kg", "result": "322 ± 94", "unit": "relative light units"}, {"measurement": "UCP1 content of white adipose tissue (in words)", "setting": "[3]; db/db mice, 2 weeks, Compound BI 100 mg/kg/day, RSG 3 mg/kg/day, alone or combined", "result": "slightly the UCP1 content of elevated white adipose tissue"}]}
